# Experimental data from patent US7594984B2, “Apparatus and method for measuring activity signals of biological samples” (Panasonic Corporation, priority 2002, dated 2009).
# Assays:
# [1] = test system: nerve cells prepared from lymnaea; experiment: Extracellular recording of nerve cell electrical signals at a series of Carbachol concentrations; mean value of standard deviations; format: cell-based; conditions: concentrations 0-100, SD sampled every 100 ms from 10-second data, FIG. 10
# From the text: FIG. 9 is a block diagram schematically illustrating a configuration of the apparatus for measuring the activity signals of biological samples according to Embodiment 3. The apparatus employs the apparatus of Embodiment 1 as a measurement unit (a signal source) 101, and has a function for processing electrical signals detected by the measurement unit 101. As shown in FIG. 9(A), the apparatus is provided with a group SD (standard deviation) calculation unit 102, a mean value calculation unit 105, an activation evaluation unit 120 and a data display unit 110. According to the group SD calculation unit 102, the standard deviation of one group consisting of a predetermined number of samples is calculated on the basis of time-series data detected by the measurement unit 101. […] According to the mean value calculation unit 105, the mean value of the obtained plurality of standard deviations is calculated. […] Therefore, according to the activation calculation unit 120, activation can be calculated based on the input information and can be classified by comparison with pre-stored information. […] According to the apparatus, noise can be removed from digital signals (predetermined time-series data) captured at a fixed sampling rate, and then significant signals showing, for example, the opening and closing of ion channels can be extracted, measured and classified. […]
# [2] = test system: nerve cells prepared from lymnaea; experiment: Extracellular recording before and after Carbachol administration; normal distribution of standard deviations (mean value, half-width); format: cell-based; conditions: 50-μM Carbachol
# From the text: The normal distribution approximation unit 103 classifies a plurality of standard deviations obtained in the group SD calculation unit 102 into a plurality of classes set at predetermined widths. The classes are plotted on the X axis and the number of standard deviations classified into each class is plotted on the Y axis, to obtain a graph. The graph obtained is approximated to a normal distribution. Methods for approximating the graph to a normal distribution include, for example, various curve fitting analyses, such as exponential decrease, exponential increase, Gaussian, Lorentzian, Sigma, Multipeak and non-linear methods. The mean value/half-width calculation unit 106 calculates the mean value and half-width (the half-peak height width) of the normal distribution obtained.
# The apparatus of the present embodiment thus configured was used to measure how the chemical substance Carbachol acts on nerve cells prepared from lymnaea. More specifically, the normal distribution approximation unit 103 produced a frequency distribution of the standard deviations on the basis of signals that were detected by the measurement unit 101 before and after Carbachol was administered to lymnaea nerve cells at 50-μM concentration. […]
smiles,measurement,setting,value
C[N+](C)(C)CCOC(N)=O [Carbachol],Carbachol concentration at which the mean value of the standard deviations reaches its peak,[1],10 µM
same,effect on ion channels of the nerve cells,[2]; lymnaea nerve cells,activates the ion channels
same,mean value of the normal distribution of standard deviations after administration,"[2]; SD every 5 ms from 10-second signals, before administration 0.478, FIG. 12",0.703
